{"source": "patent US11376242B2", "about": "“Methods and compositions for treating obesity and/or diabetes and for identifying candidate treatment agents” (The J. David Gladstone Institutes, a testamentary trust …, priority 2016, dated 2022)", "key": {"[1]": {"system": "ClpP substrate protein levels in mouse MEF cells", "experiment": "Western blot analysis of ClpP substrates in MEF cells treated with ClpP inhibitors", "assay_type": "cell-based", "details": "10 μM in OPTI-MEM twice a day for 2 days (48 hr); wild type mouse MEF cells; western blot (FIGS. 24 and 25)", "procedure": "(§1) Western blot. Tissues or cells were lysated in low-detergent buffer (50 mM Tris/HCl, pH 8.0, 150 mM NaCl, 0.1% SDS, 0.5% Nonidet P-40, 0.5% sodium deoxycholate) with a mixture of protease inhibitors. Phosphatase inhibitors were also included in the lysate buffer. The lysates were centrifuged at 13,000 rpm for 10 min to remove the pellets. SDS-PAGE was performed with a NuPAGE bis-tris system from Invitrogen, following the vendor's protocol. A standard western blot protocol was used with IRDye-labeled secondary antibodies (Li-cor). A Li-cor image system was used to scan the western blot images.\n(§2) Wild type mouse MEF cells were seeded at 200,000 cells per well at 6 well plates the day before treatment. Cells were treated with the small molecule ClpP inhibitors A2-32-01, AV167, and AV179 (described previously herein) at 10 μM in OPTI-MEM twice a day for 2 days (48 hr). For each treatment, the old medium will be removed and fresh medium added to the wells. After 48 hr treatment, the cells were harvested for western blot analysis or qPCR assay of ClpP substrates."}, "[2]": {"system": "mRNA level of these genes in mouse MEF cells", "experiment": "qPCR assay of ClpP substrates in MEF cells treated with ClpP inhibitor", "assay_type": "cell-based", "details": "10 μM twice a day for 2 days (48 hr), qPCR (FIG. 26)", "procedure": "as §2"}, "[3]": {"system": "high fat diet (HFD)-induced obesity and diabetes mouse models", "experiment": "In vivo treatment in high fat diet (HFD)-induced obesity and diabetes mouse model", "description": "Animals. All mice were maintained on a 12-h light/dark cycle in a pathogen-free animal facility. Mice were separately housed by their genotypes for all metabolic studies. For high-fat diet (HFD)-induced obesity studies, animals were fed a HFD (21% by weight, 42% kcal from fat, 0.2% total cholesterol; TD.01064, Harlan-Teklad) for specified periods. Anesthesia was induced with isoflurane (survival procedures) or with avertin (terminal procedures). All procedures were approved by the UCSF Animal Research Committee and followed NIH guidelines. Animal sample sizes for different assays were chosen based on previous literature. Animals were grouped according to genotype; no randomization was used. For all behavior tests, all animal IDs were blinded to tester. Testers were not blinded for other assays.\n(§3) Measurement of blood glucose and plasma insulin. Blood glucose was measured with a glucometer and glucose test strips (Free Style Lite). Plasma insulin was quantified with an insulin Elisa kit (Crystal Chem).\n(§4) Glucose, insulin, and pyruvate tolerance tests. Glucose, insulin, and pyruvate tolerance tests were performed by intraperitoneal injection of glucose (2 g/kg), insulin (0.5 units/kg) or pyruvate (2 g/kg) after an overnight fast for glucose and pyruvate or a 4-h fast for insulin. Blood glucose levels were measured before injection and at different time points after injection. To assess glucose-stimulated insulin release, mice fasted overnight (for 16 h) and were then injected intraperitoneally with glucose (2 g/kg). Blood samples were collected from tail veins before injection and at different time points after injection.\n(§5) Histological analysis. Tissues (liver, visceral adipose, gastrocnemius muscle, interscapular brown adipose, and pancreas) were fixed in 4% paraformaldehyde (pH 7.4) overnight, embedded in paraffin, and serially sectioned at 7-8 μm. Standard haematoxylin and eosin staining was performed.\n7-9 month old WT female (20 mice), were fed with high fat diet for 3 weeks. Body weight change and blood glucose/plasma insulin levels in response to HFD were measured. At the beginning of the 4th week, for treatment group, A2-32-01 was injected peritoneally twice daily at 300 mg/kg for 8 days. For the control group, corn oil (vehicle) was injected. The mice were maintained on HFD. The body weight change was followed every day. At the 8th day of A2-32-01 injection, blood glucose levels were measured, and a glucose tolerance test was applied to measure insulin sensitivity.\n(§6) The in-vivo analysis described in Examples 9 and 10 was continued in accordance with the experimental protocol shown in FIG. 30."}, "ClpP [4]": {"molecular_target": "T1, ClpP (Mus musculus, UniProt O88696)", "T1 construct": "ClpP activity was lower in liver mitochondrion lysates from A2-32-01-treated mice compared to those from vehicle-treated mice; from tissue; host or cells: liver mitochondria of HFD-fed wild-type mice dosed in vivo with A2-32-01", "T1 sequence (O88696 53-272)": "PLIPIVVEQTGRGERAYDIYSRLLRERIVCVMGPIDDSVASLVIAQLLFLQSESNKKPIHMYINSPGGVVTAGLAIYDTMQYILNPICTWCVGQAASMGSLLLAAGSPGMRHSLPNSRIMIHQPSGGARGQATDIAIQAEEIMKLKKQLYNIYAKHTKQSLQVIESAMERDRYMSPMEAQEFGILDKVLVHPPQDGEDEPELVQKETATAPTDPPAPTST", "experiment": "ClpP activity in liver mitochondrion lysates from treated HFD-fed mice", "assay_type": "in vivo", "details": "HFD-fed WT mice; vs vehicle-treated (FIG. 32 left panel)", "procedure": "(§7) The in-vivo analysis of Example 9 is continued, with collection of the blood and multiple organs (liver/muscle/brain) at day 9 of A2-32-01 injection. Mitochondria are isolated from mouse liver and ClpP activity is tested using peptide substrates, e.g., as described herein. Western blot analysis is performed to detect ClpP substrate levels.\nas §6"}, "[5]": {"system": "tentative ClpP effectors (Trap1, ClpX, LRPPRC, LonP, and OAT)", "experiment": "Western blot of tentative ClpP effectors in liver mitochondrion lysates from treated HFD-fed mice", "assay_type": "in vivo, mouse", "details": "HFD-fed WT mice, vs vehicle-treated (FIG. 32 right panel)", "procedure": "as §1, §7, §6"}, "[6]": {"system": "db/db mice (a model of obesity, diabetes, and dyslipidemia)", "experiment": "In vivo treatment of db/db mice", "design": "species or system mouse", "procedure": "as §3, §4, §5"}, "ClpP [7]": {"molecular_target": "T1, ClpP", "experiment": "ClpP activity in liver mitochondria lysates from treated db/db mice", "assay_type": "in vivo", "details": "vs vehicle (FIG. 35 panel E)"}, "[8]": {"details": "WT mice on HFD, H&E and oil red staining, vs vehicle (FIG. 33)"}, "[9]": {"details": "H&E and oil red staining, vs vehicle (FIG. 36)"}}}
{"smiles": "C=CCCCCCCC[C@H]1C(=O)O[C@@H]1CCc1cccnc1", "note": "(racemic) [A2-32-01, (3RS,4RS)-3-(non-8-en-1-yl)-4-(2-(pyridin-3-yl)ethyl)oxetan-2-one]", "values": [{"measurement": "ClpP substrate protein levels", "setting": "[1]", "value": "increased"}, {"measurement": "mRNA level of ClpP substrate genes", "setting": "[2]", "value": "remained unchanged"}, {"measurement": "body weight", "setting": "[3]; 300 mg/kg peritoneally twice daily, day 2 through day 7, HFD-fed WT female mice, vs vehicle control (FIG. 28)", "value": "significant decrease"}, {"measurement": "insulin sensitivity (glucose tolerance test)", "setting": "[3]; 300 mg/kg peritoneally twice daily, day 8, HFD-fed WT mice, vs vehicle control (FIG. 29)", "value": "significant improvement"}, {"measurement": "insulin sensitivity (glucose tolerance tests)", "setting": "[3]; Example 11, HFD-fed WT mice, vs vehicle (FIG. 31 right panel)", "value": "increased"}, {"measurement": "body weight", "setting": "[3]; Example 11, mice on HFD, vs vehicle-treated (FIG. 31 left panel)", "value": "significantly decreased"}, {"measurement": "lipid accumulation in liver cells", "setting": "[3]; [8]", "value": "lowered"}, {"measurement": "morphology of liver cells", "setting": "[3]; [8]", "value": "restored normal morphology"}, {"measurement": "ClpP activity in liver mitochondrion lysates", "setting": "ClpP [4]", "value": "lower"}, {"measurement": "levels of tentative ClpP effectors (Trap1, ClpX, LRPPRC, LonP, and OAT) in liver mitochondrion lysates", "setting": "[5]", "value": "higher"}, {"measurement": "lipid accumulation in liver cells", "setting": "[6]; [9]", "value": "lowered"}, {"measurement": "morphology of liver cells", "setting": "[6]; [9]", "value": "restored normal morphology"}, {"measurement": "body weight", "setting": "[6]; at the end of the treatment, vs vehicle (FIG. 34 panel B)", "value": "significantly decreased"}, {"measurement": "insulin sensitivity (glucose tolerance tests)", "setting": "[6]; vs vehicle (FIG. 35 panel C)", "value": "increased"}, {"measurement": "fasting blood glucose levels", "setting": "[6]; vs vehicle (FIG. 35 panel D)", "value": "significantly lower"}, {"measurement": "ClpP activity in liver mitochondria lysates", "setting": "ClpP [7]", "value": "lower"}]}
